Source: the CheMixHub ionic liquid set

Experiment: xn = mol fraction of the nth substance listed

CCCC[n+]1ccn(C)c1.COS(=O)(=O)[O-] + CCCC[n+]1ccn(C)c1.F[B-](F)(F)F
101 kPa
Conditions	viscosity [mPa·s]
298.15 K, x2 = 0.4358	161.7
298.15 K, x2 = 0.5118	158.9
298.15 K, x2 = 0.6026	146.2
298.15 K, x2 = 0.9447	110.8
299.15 K, x2 = 0	202.9
299.15 K, x2 = 0.1209	181.8
301.15 K, x2 = 0.1209	162.8
301.15 K, x2 = 0.2142	158.7
301.15 K, x2 = 0.4358	136.4
301.15 K, x2 = 0.6934	117
301.15 K, x2 = 0.7813	109.5
302.15 K, x2 = 0	171.4
302.15 K, x2 = 0.3057	144.1
302.15 K, x2 = 0.5412	122.2
302.15 K, x2 = 0.6026	117.5
302.15 K, x2 = 0.648	113.8
303.15 K, x2 = 0.406	127.9
303.15 K, x2 = 0.5118	118.6
304.15 K, x2 = 0.3057	129.6
304.15 K, x2 = 0.5412	109.7
304.15 K, x2 = 0.6934	99.9
305.15 K, x2 = 0.1209	131.1
305.15 K, x2 = 0.2142	127.8
305.15 K, x2 = 0.6026	100.3
305.15 K, x2 = 0.9005	82.8
305.15 K, x2 = 0.9447	78.2
307.15 K, x2 = 0.4358	99.4
307.15 K, x2 = 0.6026	90.9
308.15 K, x2 = 0.1209	112.4
308.15 K, x2 = 0.406	98.7
308.15 K, x2 = 0.9447	68

NC=O + CCCC[n+]1ccn(C)c1.F[B-](F)(F)F
101 kPa
Conditions	viscosity [mPa·s]
293.15 K, x2 = 0	3.66
293.15 K, x2 = 0.2758	10.51
293.15 K, x2 = 0.3629	16.75
293.15 K, x2 = 0.5095	31.8
293.15 K, x2 = 0.569	39.6
298.15 K, x2 = 0.2758	9.47
298.15 K, x2 = 0.7588	56.7
298.15 K, x2 = 0.8107	64.8
303.15 K, x2 = 0.4499	17.48
303.15 K, x2 = 0.8107	50.9
303.15 K, x2 = 0.8626	57.3
303.15 K, x2 = 0.9313	66.4
308.15 K, x2 = 0.2758	7.5
308.15 K, x2 = 0.4499	14.74
308.15 K, x2 = 0.9313	51.2
313.15 K, x2 = 0.2054	4.61
313.15 K, x2 = 0.3629	8.75
313.15 K, x2 = 0.4499	11.81
318.15 K, x2 = 0.2758	5.08
318.15 K, x2 = 0.569	14.1
318.15 K, x2 = 0.6639	18.31
318.15 K, x2 = 0.8626	29.35

NCCO + CCCC[n+]1ccn(C)c1.F[P-](F)(F)(F)(F)F
101 kPa, x1 = 1
Conditions	electrical conductivity [S/m]	viscosity [mPa·s]
288.15 K	0.00163	31
293.15 K	0.00189	23.7
298.15 K	0.00227	–
303.15 K	0.00272	–
308.15 K	0.00321	–
313.15 K	0.00357	–
318.15 K	0.00622	8.1
323.15 K	0.00689	–

CCCC[n+]1ccn(C)c1.N#C[C-](C#N)C#N + CCCC[n+]1ccn(C)c1.O=S(=O)([N-]S(=O)(=O)C(F)(F)F)C(F)(F)F
viscosity [mPa·s], 100 kPa
Conditions	x2 = 0	x2 = 0.252	x2 = 0.501	x2 = 0.751
283.15 K	58.2	65.9	77.3	88.9
288.15 K	44.5	50.6	59.4	68.5
293.15 K	34.9	39.8	46.8	53.9
298.15 K	28	31.9	37.6	43.1
303.15 K	22.9	26.1	30.7	35.2
308.15 K	18.98	21.6	25.4	29.1
313.15 K	15.99	18.22	21.4	24.4
318.15 K	13.66	15.53	18.22	20.7
323.15 K	11.8	13.39	15.72	17.75
328.15 K	10.29	11.66	13.61	15.38
333.15 K	9.06	10.25	11.9	13.44
338.15 K	8.04	9.08	10.54	11.84
343.15 K	7.19	8.1	9.38	10.5
348.15 K	6.47	7.27	8.42	9.39
353.15 K	5.86	6.57	7.55	8.44
358.15 K	5.34	5.97	6.86	7.62
363.15 K	4.88	5.46	6.29	6.93

NCCO + CCCC[n+]1ccn(C)c1.O=[N+]([O-])[O-] + O
Conditions	viscosity [mPa·s]
313 K, 100 kPa, x2 = 0, x3 = 0.8878	1.963

CC[n+]1ccn(C)c1.COS(=O)(=O)[O-] + CCCO
viscosity [mPa·s], 101 kPa
Conditions	283.15 K	293.15 K	303.15 K	313.15 K	323.15 K
x1 = 0.0562	3.83	3	2.38	1.93	1.58
x1 = 0.1123	5.02	3.88	3.06	2.47	2.02
x1 = 0.2201	8.55	6.43	4.9	3.82	3.15
x1 = 0.3272	12.73	9.53	7.27	5.71	4.62
x1 = 0.4282	19.32	14.17	10.7	8.3	6.6
x1 = 0.5272	29.1	20.65	15.24	11.61	9.06
x1 = 0.6285	40.72	27.29	19.7	14.77	11.43
x1 = 0.7255	56.5	37.58	27.45	20.14	15.3
x1 = 0.8203	82.4	52.7	35.86	26.65	19.78
x1 = 0.9091	104.9	63.6	42.77	30.19	22.2
x1 = 0.954	127.2	77	50.3	35.02	25.63
x1 = 1	141	84.1	57.9	39.54	28.33

CC[n+]1ccn(CCOC)c1.O=S(=O)([O-])C(F)(F)F + CCCO
viscosity [mPa·s], 101 kPa
Conditions	x1 = 0.0987	x1 = 0.1999	x1 = 0.2982	x1 = 0.3994	x1 = 0.499	x1 = 0.599	x1 = 0.698	x1 = 0.801	x1 = 0.899	x1 = 1
288.15 K	4.257	6.11	10	14.17	23.2	31.9	45.2	63.3	88.6	121
293.15 K	3.751	4.78	8.54	12.17	19.23	26.22	36.7	50.5	69.1	92.5
298.15 K	3.282	4.18	7.36	10.61	16.22	21.94	30.16	41	55.3	72.5
303.15 K	2.914	3.72	6.41	9.35	13.09	18.61	25.17	33.69	44.8	57.9
308.15 K	2.594	3.59	5.63	8.33	11.23	15.98	21.29	28.1	36.86	47.3
313.15 K	2.321	3.205	4.98	7.49	10.09	13.81	18.34	23.8	30.74	39
318.15 K	2.086	3.097	4.43	6.8	8.6	12	15.84	20.29	25.97	32.59

CCC[N+]1(C)CCCC1.N#C[N-]C#N + CCC[N+]1(C)CCCC1.O=S(=O)([N-]S(=O)(=O)C(F)(F)F)C(F)(F)F
333.15 K, 101 kPa
Conditions	electrical conductivity [S/m]	viscosity [mPa·s]
x1 = 0.25	1.38	16.8
x1 = 0.75	2.72	13.2

CC[n+]1ccn(C)c1.COS(=O)(=O)[O-] + CCO
viscosity [mPa·s], 101 kPa
Conditions	283.15 K	293.15 K	303.15 K	313.15 K	323.15 K
x1 = 0.0561	2.15	1.77	1.48	1.24	1.04
x1 = 0.112	2.99	2.44	2.02	1.7	1.44
x1 = 0.213	5.56	4.37	3.53	2.81	2.36
x1 = 0.3285	9.85	7.62	6.01	4.85	3.98
x1 = 0.356	11.14	8.61	6.78	5.44	4.44
x1 = 0.525	23.46	17.1	12.99	10.15	8.15
x1 = 0.632	38.01	26.49	19.73	14.91	11.58
x1 = 0.7294	55	36.84	26.04	19.5	15
x1 = 0.8202	76.5	49.25	33.81	24.48	18.59
x1 = 0.9108	106.9	66	43.92	30.93	22.87
x1 = 0.9556	124.7	75.7	49.57	34.48	25.22
x1 = 1	141	84.1	57.9	39.54	28.33
